Laboratory results from PubChem BioAssay (NCI).
Several values for one entry are separate records, joined by “and”; a condition that tells them apart may be missing. Identical values can stand only once.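 The compound was tested at five concentrations on cells cultured in 96-well plates, with a 48-hour exposure period. GI50: concentration for 50% inhibition of growth. TGI is the concentration that stops growth completely.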

Experiments:
Assay in all cases: DTP human tumour cell line panel, 48 h
A549 NSCLC = tested on: A549 NSCLC
CAKI-1 renal = tested on: CAKI-1 renal
DU-145 prostate = tested on: DU-145 prostate
HCT-15 colon = tested on: HCT-15 colon
HOP-62 NSCLC = tested on: HOP-62 NSCLC
IGROV1 ovarian = tested on: IGROV1 ovarian
MCF7 breast = tested on: MCF7 breast
OVCAR-3 ovarian = tested on: OVCAR-3 ovarian
SK-MEL-5 melanoma = tested on: SK-MEL-5 melanoma
TK-10 renal = tested on: TK-10 renal

With `COc1ccc(CCN2CC=Cn3c2nc2ccccc2c3=O)cc1` the GI50 (A549 NSCLC) was 0.038 µM, the TGI (A549 NSCLC) was over 49.1 µM and the GI50 (CAKI-1 renal) was 0.0576 µM. The TGI (CAKI-1 renal) was over 100 µM, the GI50 (DU-145 prostate) was 0.0374 µM and the TGI (DU-145 prostate) was over 23.3 µM. It also gave a GI50 (HCT-15 colon) of 0.0185 µM, a TGI (HCT-15 colon) of over 45.7 µM and a GI50 (HOP-62 NSCLC) of 0.0346 µM. The TGI (HOP-62 NSCLC) was over 64 µM, the GI50 (IGROV1 ovarian) was 0.0509 µM and the TGI (IGROV1 ovarian) was over 50.3 µM. For the same compound, the GI50 (MCF7 breast) was 0.0307 µM, the TGI (MCF7 breast) was over 43 µM and the GI50 (OVCAR-3 ovarian) was 0.0214 µM. It also gave a TGI (OVCAR-3 ovarian) of 0.0605 µM, a GI50 (SK-MEL-5 melanoma) of 0.0265 µM and a TGI (SK-MEL-5 melanoma) of 0.154 µM. It also gave a GI50 (TK-10 renal) of 40 µM and a TGI (TK-10 renal) of over 100 µM.
`Cc1cc2c(C(C)C)c(O)c(O)cc2c(O)c1-c1c(C)cc2c(C(C)C)c(O)c(O)cc2c1O` was tested, and the GI50 (A549 NSCLC) was 17.2 µM, the TGI (A549 NSCLC) was 47.2 µM and the GI50 (CAKI-1 renal) was 19.2 µM. The TGI (CAKI-1 renal) was 82.6 µM, the GI50 (DU-145 prostate) was 22 µM and the TGI (DU-145 prostate) was 78 µM. For the same compound, the GI50 (HCT-15 colon) was 5.31 µM, the TGI (HCT-15 colon) was 20.9 µM and the GI50 (HOP-62 NSCLC) was 13 µM. It also gave a TGI (HOP-62 NSCLC) of 30.2 µM, a GI50 (IGROV1 ovarian) of 10.1 µM and a TGI (IGROV1 ovarian) of 23.6 µM. It also gave a GI50 (MCF7 breast) of 11.4 µM, a TGI (MCF7 breast) of 29.5 µM and a GI50 (OVCAR-3 ovarian) of 14.4 µM. The TGI (OVCAR-3 ovarian) was 29.8 µM, the GI50 (SK-MEL-5 melanoma) was 12.6 µM and the TGI (SK-MEL-5 melanoma) was 26 µM. The GI50 (TK-10 renal) was 13.6 µM and the TGI (TK-10 renal) was 83.4 µM.
`Cc1cccc(/C=N/NC(=S)N2CCCC2)n1` showed a GI50 (A549 NSCLC) of 2.5 µM, a TGI (A549 NSCLC) of over 100 µM and a GI50 (CAKI-1 renal) of 3.24 µM. It also gave a TGI (CAKI-1 renal) of 1.16 µM, a GI50 (DU-145 prostate) of 0.98 µM and a GI50 (HCT-15 colon) of 0.586 µM. It also gave a TGI (HCT-15 colon) of over 100 µM, a GI50 (HOP-62 NSCLC) of 2.17 µM and a TGI (HOP-62 NSCLC) of 0.942 µM. The GI50 (IGROV1 ovarian) was 0.415 µM, the TGI (IGROV1 ovarian) was over 100 µM and the GI50 (MCF7 breast) was 0.169 µM. The GI50 (OVCAR-3 ovarian) was 0.28 µM, the TGI (OVCAR-3 ovarian) was 0.843 µM and 0.0848 µM and the TGI (SK-MEL-5 melanoma) was 0.823 µM. The GI50 (TK-10 renal) was 4.82 µM and the TGI (TK-10 renal) was 1.35 µM.
Work on `COc1cc2nc(N3CCCC3)nc(NCc3ccccc3)c2cc1OC` yielded a GI50 (A549 NSCLC) of 4.1 µM, a TGI (A549 NSCLC) of 16.3 µM and a GI50 (CAKI-1 renal) of 1.57 µM. For the same compound, the TGI (CAKI-1 renal) was 3.14 µM, the GI50 (DU-145 prostate) was 4.62 µM and the TGI (DU-145 prostate) was 16.5 µM. The GI50 (HCT-15 colon) was 1.79 µM, the TGI (HCT-15 colon) was 4.22 µM and the GI50 (HOP-62 NSCLC) was 12.3 µM. For the same compound, the TGI (HOP-62 NSCLC) was 26.9 µM, the GI50 (IGROV1 ovarian) was 3.66 µM and the TGI (IGROV1 ovarian) was 16.2 µM. It also gave a GI50 (MCF7 breast) of 1.71 µM, a TGI (MCF7 breast) of 4.21 µM and a GI50 (OVCAR-3 ovarian) of 2.27 µM. It also gave a TGI (OVCAR-3 ovarian) of 5.53 µM, a GI50 (SK-MEL-5 melanoma) of 1.65 µM and a TGI (SK-MEL-5 melanoma) of 3.12 µM. It also gave a GI50 (TK-10 renal) of 1.9 µM and a TGI (TK-10 renal) of 3.71 µM.
Compound `COc1ccc(C/C(C)=C(/c2ccc(OCCN3CCCCC3)cc2)c2ccc(OC(=O)NCc3ccccc3)cc2)cc1` has a GI50 (A549 NSCLC) of 0.413 µM, a TGI (A549 NSCLC) of 0.821 µM and a GI50 (CAKI-1 renal) of 0.405 µM. The TGI (CAKI-1 renal) was 0.769 µM, the GI50 (DU-145 prostate) was 0.442 µM and the TGI (DU-145 prostate) was 0.805 µM. The GI50 (HCT-15 colon) was 0.339 µM, the TGI (HCT-15 colon) was 0.706 µM and the GI50 (HOP-62 NSCLC) was 0.419 µM. The TGI (HOP-62 NSCLC) was 0.825 µM, the GI50 (IGROV1 ovarian) was 0.424 µM and the TGI (IGROV1 ovarian) was 0.859 µM. The GI50 (MCF7 breast) was 0.0568 µM, the TGI (MCF7 breast) was 0.512 µM and the GI50 (OVCAR-3 ovarian) was 0.413 µM. It also gave a TGI (OVCAR-3 ovarian) of 0.762 µM, a GI50 (SK-MEL-5 melanoma) of 0.421 µM and a TGI (SK-MEL-5 melanoma) of 0.774 µM. For the same compound, the GI50 (TK-10 renal) was 0.405 µM and the TGI (TK-10 renal) was 0.781 µM.
`C#CC#CC#CC#CC#CC#CC#CC#CCC1OCC(COC(=O)O[C@@H](C(=O)O[C@H]2C[C@@]3(O)[C@@H](OC(=O)c4ccccc4)[C@@H]4[C@]5(OC(C)=O)CO[C@@H]5C[C@H](O)[C@@]4(C)C(=O)[C@H](OC(C)=O)C(=C2C)C3(C)C)[C@@H](NC(=O)c2ccccc2)c2ccccc2)O1` (some centres not stated) gave a GI50 (A549 NSCLC) of 0.175 µM, a TGI (A549 NSCLC) of over 33.3 µM and a GI50 (CAKI-1 renal) of 0.446 µM. It also gave a TGI (CAKI-1 renal) of over 33.3 µM, a GI50 (DU-145 prostate) of 0.0961 µM and a GI50 (HCT-15 colon) of over 9.51 µM. For the same compound, the TGI (HCT-15 colon) was over 33.3 µM, the GI50 (HOP-62 NSCLC) was 0.775 µM and the TGI (HOP-62 NSCLC) was over 33.3 µM. The GI50 (IGROV1 ovarian) was 0.235 µM, the TGI (IGROV1 ovarian) was over 33.3 µM and the GI50 (MCF7 breast) was 0.0461 µM. The TGI (MCF7 breast) was over 33.3 µM, the GI50 (OVCAR-3 ovarian) was 0.0971 µM and the GI50 (SK-MEL-5 melanoma) was 0.671 µM. It also gave a TGI (SK-MEL-5 melanoma) of over 9.85 µM, a GI50 (TK-10 renal) of over 16.3 µM and a TGI (TK-10 renal) of over 33.3 µM.
Work on `NC(=O)N/N=C1/CCC(O)CC1CC(=O)O` (configuration not stated) yielded a TGI (A549 NSCLC) of over 100 µM, a TGI (CAKI-1 renal) of over 100 µM and a TGI (DU-145 prostate) of over 100 µM. The TGI (HCT-15 colon) was over 100 µM, the TGI (HOP-62 NSCLC) was over 100 µM and the TGI (IGROV1 ovarian) was over 100 µM. For the same compound, the TGI (MCF7 breast) was over 100 µM, the TGI (OVCAR-3 ovarian) was over 100 µM and the TGI (SK-MEL-5 melanoma) was over 100 µM. For the same compound, the TGI (TK-10 renal) was over 100 µM.
`C=CCN=C(N/N=C/c1ccc([N+](=O)[O-])o1)NS(=O)(=O)c1cc(C(=O)Nc2ccc(Cl)cc2)c(Cl)cc1SC` was tested, and the GI50 (A549 NSCLC) was over 37.3 µM, the TGI (A549 NSCLC) was over 100 µM and the GI50 (CAKI-1 renal) was 8.55 µM. The TGI (CAKI-1 renal) was over 100 µM, the GI50 (DU-145 prostate) was 2.72 µM and the TGI (DU-145 prostate) was over 35.2 µM. It also gave a GI50 (HCT-15 colon) of 2.97 µM, a TGI (HCT-15 colon) of 13.5 µM and a GI50 (HOP-62 NSCLC) of 1.8 µM. For the same compound, the TGI (HOP-62 NSCLC) was 7.32 µM, the GI50 (IGROV1 ovarian) was over 69.9 µM and the TGI (IGROV1 ovarian) was over 100 µM. For the same compound, the GI50 (MCF7 breast) was 1.28 µM, the TGI (MCF7 breast) was over 100 µM and the GI50 (OVCAR-3 ovarian) was 1.57 µM. It also gave a TGI (OVCAR-3 ovarian) of 14.1 µM, a GI50 (SK-MEL-5 melanoma) of 2.14 µM and a TGI (SK-MEL-5 melanoma) of 4.82 µM. The GI50 (TK-10 renal) was over 90.8 µM and the TGI (TK-10 renal) was over 100 µM.
Work on `N#C/C(=C\c1ccsc1)c1nc2ccccc2o1` yielded a GI50 (A549 NSCLC) of over 100 µM, a TGI (A549 NSCLC) of over 100 µM and a GI50 (CAKI-1 renal) of 22.3 µM. For the same compound, the TGI (CAKI-1 renal) was over 100 µM, the GI50 (DU-145 prostate) was 84.6 µM and the TGI (DU-145 prostate) was over 100 µM. It also gave a GI50 (HCT-15 colon) of over 100 µM, a TGI (HCT-15 colon) of over 100 µM and a GI50 (IGROV1 ovarian) of 33.3 µM. The TGI (IGROV1 ovarian) was over 100 µM, the GI50 (MCF7 breast) was 17.8 µM and the TGI (MCF7 breast) was over 100 µM. For the same compound, the GI50 (OVCAR-3 ovarian) was 85.1 µM, the TGI (OVCAR-3 ovarian) was over 100 µM and the GI50 (SK-MEL-5 melanoma) was 58.8 µM. For the same compound, the TGI (SK-MEL-5 melanoma) was over 100 µM, the GI50 (TK-10 renal) was 21.1 µM and the TGI (TK-10 renal) was 70.5 µM.
Compound `COc1cc2c(cc1OC)[C@H](C)N1CCc3cc(OC)c(OC)cc3[C@@H]1C2` has a TGI (A549 NSCLC) of over 100 µM, a TGI (CAKI-1 renal) of over 100 µM and a TGI (DU-145 prostate) of over 100 µM. For the same compound, the TGI (HCT-15 colon) was over 100 µM, the TGI (IGROV1 ovarian) was over 100 µM and the TGI (MCF7 breast) was over 100 µM. It also gave a TGI (OVCAR-3 ovarian) of over 100 µM, a TGI (SK-MEL-5 melanoma) of over 100 µM and a TGI (TK-10 renal) of over 100 µM.
